The source made the active and inactive calls. The rule behind the calls is not given here.
Experiments:
[1] = test system: K562; assay: Induction of apoptosis in human K562 cells assessed as chromatin aggregation at 2 to 8 nM incubated for 48 hrs by Hoechst 33342 staining based analysis; type: functional, cell-based; conditions: dose 2-8 nM
[2] = test system: K562; assay: Induction of cell cycle arrest at G2 phase in human K562 cells at 8 nM incubated for 48 hrs by PI staining based flow cytometry (Rvb =15.36 +/- 0.46 %); type: functional
[3] = test system: K562; assay: Induction of cell cycle arrest at G1 phase in human K562 cells at 2 nM incubated for 48 hrs by PI staining based flow cytometry (reference value: 62.08 +/- 0.40 %); type: functional
[4] = test system: H22; assay: Antitumor activity against mouse H22 cells allografted in ICR mouse assessed as decrease in tumor volume at 10 to 20 mg/kg, iv qd for 17 days consecutively; type: functional, organism-based; conditions: dose 10-20 mg/kg, time 17.0 day
[5] = Toxicity in ICR mouse allografted with mouse H22 cells assessed as toxic sign in liver at 10 to 20 mg/kg, iv qd for 17 days consecutively by H and E staining based analysis; type: organism-based; conditions: in vivo, dose 10-20 mg/kg, time 17 day
[6] = target: Histone deacetylase 1 (Homo sapiens, UniProt Q13547); assay: Inhibition of HDAC1 in human K562 cells assessed as increase in Acetyl-histone H3 level at 0.01 to 1 uM incubated for 24 hrs by Western blot analysis; type: cell-based; conditions: dose 0.01-1 µM
Sequence of Histone deacetylase 1 (Q13547 whole entry): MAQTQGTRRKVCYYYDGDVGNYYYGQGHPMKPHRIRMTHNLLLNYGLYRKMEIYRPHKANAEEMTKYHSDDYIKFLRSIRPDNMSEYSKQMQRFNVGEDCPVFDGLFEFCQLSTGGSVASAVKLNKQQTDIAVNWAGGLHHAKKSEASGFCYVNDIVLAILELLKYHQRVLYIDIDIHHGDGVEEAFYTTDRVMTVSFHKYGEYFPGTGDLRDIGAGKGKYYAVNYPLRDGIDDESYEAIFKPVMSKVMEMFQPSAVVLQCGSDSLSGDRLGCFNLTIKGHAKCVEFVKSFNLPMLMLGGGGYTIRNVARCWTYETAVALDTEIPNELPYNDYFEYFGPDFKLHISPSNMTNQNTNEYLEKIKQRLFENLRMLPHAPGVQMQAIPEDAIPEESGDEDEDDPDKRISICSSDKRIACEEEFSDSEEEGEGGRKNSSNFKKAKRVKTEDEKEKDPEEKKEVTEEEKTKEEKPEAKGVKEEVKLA

[7] = Toxicity in ICR mouse allografted with mouse H22 cells assessed as toxic sign in heart at 10 to 20 mg/kg, iv qd for 17 days consecutively by H and E staining based analysis; type: organism-based; conditions: in vivo, dose 10-20 mg/kg, time 17 day
[8] = target: T1, Protein deacetylase HDAC6 (Homo sapiens) (UniProt Q9UBN7); assay: Inhibition of HDAC6 in human K562 cells assessed as increase in Acetyl-alpha-tubulin level at 0.01 to 1 uM incubated for 24 hrs by Western blot analysis; type: cell-based; conditions: dose 0.01-1 µM
T1 sequence (whole entry): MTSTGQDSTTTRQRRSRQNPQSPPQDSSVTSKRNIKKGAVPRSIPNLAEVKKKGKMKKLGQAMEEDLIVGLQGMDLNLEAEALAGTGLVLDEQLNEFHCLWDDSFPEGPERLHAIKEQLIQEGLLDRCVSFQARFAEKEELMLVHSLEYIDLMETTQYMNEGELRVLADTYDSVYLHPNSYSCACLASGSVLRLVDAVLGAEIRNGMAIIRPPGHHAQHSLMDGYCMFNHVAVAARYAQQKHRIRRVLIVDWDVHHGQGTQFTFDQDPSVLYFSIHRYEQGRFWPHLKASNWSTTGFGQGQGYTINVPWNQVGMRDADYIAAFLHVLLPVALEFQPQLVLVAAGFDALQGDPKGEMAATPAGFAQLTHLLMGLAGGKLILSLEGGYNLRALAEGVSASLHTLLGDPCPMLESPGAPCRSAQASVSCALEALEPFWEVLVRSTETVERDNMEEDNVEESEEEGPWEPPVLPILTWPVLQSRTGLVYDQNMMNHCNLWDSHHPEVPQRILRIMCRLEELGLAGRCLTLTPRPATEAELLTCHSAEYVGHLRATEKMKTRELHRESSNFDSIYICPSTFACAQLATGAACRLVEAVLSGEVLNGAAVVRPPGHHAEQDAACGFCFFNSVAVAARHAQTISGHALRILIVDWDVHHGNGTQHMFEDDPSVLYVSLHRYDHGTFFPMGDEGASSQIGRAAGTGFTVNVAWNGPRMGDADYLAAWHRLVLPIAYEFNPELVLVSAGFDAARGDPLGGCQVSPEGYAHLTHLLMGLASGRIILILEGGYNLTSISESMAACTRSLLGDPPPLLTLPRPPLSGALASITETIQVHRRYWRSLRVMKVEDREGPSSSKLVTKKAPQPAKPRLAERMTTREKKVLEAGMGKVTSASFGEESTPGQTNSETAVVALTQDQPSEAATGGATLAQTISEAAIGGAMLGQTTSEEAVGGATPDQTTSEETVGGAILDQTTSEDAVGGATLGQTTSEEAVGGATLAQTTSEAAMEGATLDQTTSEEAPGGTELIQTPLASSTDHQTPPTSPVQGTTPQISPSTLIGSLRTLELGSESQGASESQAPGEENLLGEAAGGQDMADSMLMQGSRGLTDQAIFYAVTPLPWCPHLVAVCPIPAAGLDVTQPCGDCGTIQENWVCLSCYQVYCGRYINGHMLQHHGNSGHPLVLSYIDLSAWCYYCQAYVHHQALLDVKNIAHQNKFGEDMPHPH

[9] = test system: K562; assay: Induction of apoptosis in human K562 cells assessed as increase in Bad level incubated for 24 hrs by Western blot analysis; type: functional, cell-based; conditions: dose 2-8 nM
[10] = test system: K562; assay: Induction of apoptosis in human K562 cells assessed as viable cells at 2 nM incubated for 48 hrs by Annexin V/PI staining based flow cytometry (reference value: 92.52 +/- 0.34 %); type: functional; conditions: read-out: Activity
[11] = target: Histone deacetylase 2 (Homo sapiens, UniProt Q92769); assay: Inhibition of HDAC2 in human K562 cells assessed as increase in Acetyl-histone H3 level at 0.01 to 1 uM incubated for 24 hrs by Western blot analysis; type: cell-based; conditions: dose 0.01-1 µM
Sequence of Histone deacetylase 2 (Q92769 whole entry): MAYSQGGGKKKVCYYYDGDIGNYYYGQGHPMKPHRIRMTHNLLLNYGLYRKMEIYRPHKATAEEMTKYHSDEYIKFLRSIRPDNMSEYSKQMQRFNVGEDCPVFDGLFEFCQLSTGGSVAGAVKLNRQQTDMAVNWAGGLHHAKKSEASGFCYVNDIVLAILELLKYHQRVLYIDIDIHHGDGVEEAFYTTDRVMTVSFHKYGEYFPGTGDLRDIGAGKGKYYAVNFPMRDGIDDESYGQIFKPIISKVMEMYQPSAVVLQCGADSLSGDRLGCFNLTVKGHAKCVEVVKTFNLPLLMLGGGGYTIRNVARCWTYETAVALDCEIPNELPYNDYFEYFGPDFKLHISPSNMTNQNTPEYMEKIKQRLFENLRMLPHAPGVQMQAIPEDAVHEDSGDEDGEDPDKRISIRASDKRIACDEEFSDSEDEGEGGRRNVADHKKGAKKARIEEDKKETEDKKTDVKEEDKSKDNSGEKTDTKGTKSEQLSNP

[12] = test system: K562; assay: Induction of apoptosis in human K562 cells assessed as viable cells at 8 nM incubated for 48 hrs by Annexin V/PI staining based flow cytometry (reference value: 92.52 +/- 0.34 %); type: functional; conditions: read-out: Activity
[13] = test system: K562; assay: Induction of apoptosis in human K562 cells assessed as nuclear fragmentation at 2 to 8 nM incubated for 48 hrs by Hoechst 33342 staining based analysis; type: functional, cell-based; conditions: dose 2-8 nM
[14] = test system: K562; assay: Induction of ROS generation in human K562 cells assessed as DCF-positive cells at 2 nM incubated for 48 hrs by DCF-DA probe based flow cytometry (reference value: 3.87 %); type: functional
[15] = test system: K562; assay: Induction of apoptosis in human K562 cells assessed as late apoptotic cells at 2 nM incubated for 48 hrs by Annexin V/PI staining based flow cytometry (reference value: 3.37 +/- 0.21 %); type: functional
[16] = target: Histone deacetylase 3 (Homo sapiens, UniProt O15379); assay: Inhibition of HDAC3 derived from human HeLa cell extract using Ac-Leu-Gly-Lys (Ac)-AMC as substrate by fluorescence based assay; type: cell-free
Sequence of Histone deacetylase 3 (O15379 whole entry): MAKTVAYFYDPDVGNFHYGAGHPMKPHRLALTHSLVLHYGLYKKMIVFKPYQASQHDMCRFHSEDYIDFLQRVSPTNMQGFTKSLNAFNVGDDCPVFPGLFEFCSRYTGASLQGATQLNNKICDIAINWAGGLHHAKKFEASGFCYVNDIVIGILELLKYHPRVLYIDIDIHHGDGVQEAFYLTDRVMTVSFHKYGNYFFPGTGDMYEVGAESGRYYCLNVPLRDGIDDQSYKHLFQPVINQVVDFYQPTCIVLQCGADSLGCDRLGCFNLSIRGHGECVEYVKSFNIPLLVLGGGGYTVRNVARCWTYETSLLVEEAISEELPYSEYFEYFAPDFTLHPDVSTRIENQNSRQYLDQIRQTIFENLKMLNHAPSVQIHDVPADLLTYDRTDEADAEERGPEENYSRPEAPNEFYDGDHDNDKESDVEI

[17] = Toxicity in ICR mouse allografted with mouse H22 cells assessed as toxic sign in lung at 10 to 20 mg/kg, iv qd for 17 days consecutively by H and E staining based analysis; type: organism-based; conditions: in vivo, dose 10-20 mg/kg, time 17 day
[18] = test system: MDA-MB-231; assay: Inhibition of cell […] in human MDA-MB-231 cells incubated for 24 hrs by wound healing assay; type: functional, cell-based; conditions: dose 2-8 nM
[19] = target: Tubulin; assay: Inhibition of tubulin (unknown origin) polymerization measured for 60 mins by absorbance based assay; type: protein-complex assay, Homo sapiens
[20] = test system: H22; assay: Antiproliferative activity against mouse H22 cells incubated for 72 hrs by MTT assay; type: functional, cell-based; conditions: H22, 72 h
[21] = test system: K562; assay: Induction of apoptosis in human K562 cells assessed as necrotic cells at 8 nM incubated for 48 hrs by Annexin V/PI staining based flow cytometry (reference value: 2.56 +/- 0.22 %); type: functional
[22] = test system: MCF7; assay: cells; conditions: Homo sapiens, MCF7, 72 h
Description: Antiproliferative activity against human MCF7 cells incubated for 72 hrs by MTT assay

C=C(c1ccc(OC)c(OC(F)C(=O)NO)c1)c1cc(C)nc2ccccc12 (configuration not stated)
Activity [1]: Active
Activity [2]: 27.87%
Activity [3]: 56.87%
Activity [4]: Active
Activity [5]: Non-Toxic
inhibition [6]: Active
Activity [7]: Non-Toxic
inhibition [8]: Active
Activity [9]: Dose-Dependent Effect
viability at 0.002 µM [10]: 81.2%
inhibition [11]: Active
viability at 0.008 µM [12]: 52.6%
Activity [13]: Active
Activity [14]: 16.44%
Activity [15]: 3.94%
IC50 [16]: 3.55 µM
Activity [17]: Non-Toxic
inhibition [18]: Dose-Dependent Effect
IC50 [19]: 3.84 µM
IC50 [20]: 8 nM
Activity [21]: 3.7%
IC50 [22]: 36 nM

— ChEMBL document CHEMBL5620374, “Synthesis and bioevaluation of novel stilbene-based derivatives as tubulin/HDAC dual-target inhibitors with potent antitumor activities in vitro and in vivo” (Eur J Med Chem, 2023)
